Results on 1 molecule are retold here after PMC11438102, “Modulation of cannabinoid receptor 2 alters neuroinflammation and reduces formation of alpha-synuclein aggregates in a rat model of nigral synucleinopathy” (Journal of Neuroinflammation, 2024).

In experiment [1] the test system is CD206, YM1, TGFb, TNF, CB2 gene expression. In words: qPCR of immune markers in frontal cortex and PBMCs. It counts as in vivo. The settings on record: rat low cohort. How it is done:
PBMCs were isolated from blood of low cohort rats at euthanasia (8 weeks) for qPCR analysis of immune genes and from blood of high cohort rats at baseline, 4 and 8 weeks after AAV2/5-human WT Asyn and evaluated with flow cytometry for a longitudinal immunophenotype assessment. Red blood cells were lysed using 1x RBC lysis buffer (Biolegend Cat#420301) for 5 min in the dark. Lysis buffer was neutralized by adding 1x HBSS (Gibco Cat#14175095). Cells were pelleted by centrifugation at 400g for 5 min, supernatant removed, and cells washed with HBSS. For the high cohort, cells were resuspended in 200μL of PBS and transferred to a 96-well v-bottom plate for flow cytometry staining. For low cohort, 10,000 cells were lysed in 600μL RLT lysis buffer (Qiagen Cat#79216) + 1% BME, further homogenized by centrifugation through a QiaShredder column (2 min at 21,130g). Lysate was then stored at -80°C and later processed for RNA extraction.
Total RNA was extracted from the frontal cortex and from PBMCs of low cohort animals and standardized across all samples and groups. In short, tissue was suspended in Trizol and homogenized with a TissueLyser (Retsch). Homogenate was incubated with chloroform and RNA separated by centrifugation of […] for 15 min at 4°C. RNA was further isolated with a RNAeasy mini kit (Qiagen). The RNA (1 µg) was then reverse transcribed to cDNA and analyzed with primers (Integrated DNA Technologies) for pro-inflammatory and anti-inflammatory immune markers and CB2 (Table 1) by qRT-PCR using protocols previously published. Resulting threshold cycle (Ct) values were analyzed by the 2-ΔΔCt method using the AAV2/5-hαsyn + vehicle as the control group and normalized to GAPDH for PBMCs and HPRT1 for frontal cortex as the housekeeping genes.
Background: Quantitative PCR measures a nucleic acid by following its amplification.

In experiment [2] the test system is pSer129 and total human Asyn in striatum. The experiment can be described thus: Western immunoblot of pSer129 and total human Asyn in striatal lysates. The settings on record: rat low cohort, striatum ipsilateral to AAV, 6 mg/kg i.p. daily 7 weeks, vs vehicle. It counts as in vivo. How it is done: Sprague Dawley male rats (16–18 weeks of age, 400–525 g) were purchased from Charles River Laboratories and acclimated to Emory University animal facilities. Rats were pair housed in standard plexiglass cages under normal 12-hr light cycles and handled in accordance with protocols approved by the IACUC of Emory University in Atlanta, GA. Rats were administered unilateral injections of AAV2/5-human wild-type (WT) Asyn at titers of 2.9–4.3 × 10^11 vector genomes (vg)/mL (termed “low cohort”), which was previously shown to not induce nigral neurotoxicity. Thereby, generating a model with overexpression of human WT Asyn and Asyn-mediated neuroinflammation. […]
Striatal tissue from successfully targeted low cohort rats was homogenized in ice-cold TriZOL lysed using the TissueLyser system. […] Total protein concentrations were measured using Pierce BCA Protein Assay Kit and equal amount of protein (10–20 µg) mixed with Laemmli sample buffer were loaded in 4–20% TGX precast gels (Biorad) for gel electrophoresis. […] Revert staining was captured and measured on the Licor Odyssey at 700 nm for 30 s.
Non-specific protein binding was blocked with 5% milk and 0.1% Tween-20 in TBS for 1 h at room temperature, and membranes incubated with primary antibodies overnight at 4°C. […] The density of the band was quantified using StudioLite software. […]
On the technique in general: Immunoblotting shows a protein as a band on a membrane.

Setting [3] is: frontal cortex, relative to vehicle.

In the case of `O=C(c1ccccc1)c1cc(O)c(-c2cc(Cl)cc(Cl)c2)c(O)c1` [SMM-189], the TGFβ gene expression entry in experiment [1] (PBMCs, relative to vehicle) is given as “increased”. In experiment [1] (endpoint PBMCs, relative to vehicle), the TNF transcript entry is recorded as “decreased”. Besides, the CB2 gene expression result in experiment [1] (frontal cortex and PBMCs, between groups) is given as “not different”. In experiment [1] (setting [3]), the CD206 gene expression entry is recorded as “increased” and the YM1 gene expression entry is reported as “increased”. Further, in experiment [2], the “pS129 levels in striatum, western” value is “reduced” and the “total human Asyn levels in striatum, western” value is recorded as “no differences”.
